Data on 19 compounds can be found in patent publication US7812021B2, “Pyrrolidine aryl-ether as NK3 receptor antagonists” (Hoffmann-La Roche Inc., priority 2007, dated 2010).

This experiment addresses T1, recombinant human NK3 receptor (Homo sapiens, UniProt P29371).
T1 construct: expressed in transfected cells; host or cells: HEK293 cells, transient expression; membranes
T1 sequence (P29371 1-465): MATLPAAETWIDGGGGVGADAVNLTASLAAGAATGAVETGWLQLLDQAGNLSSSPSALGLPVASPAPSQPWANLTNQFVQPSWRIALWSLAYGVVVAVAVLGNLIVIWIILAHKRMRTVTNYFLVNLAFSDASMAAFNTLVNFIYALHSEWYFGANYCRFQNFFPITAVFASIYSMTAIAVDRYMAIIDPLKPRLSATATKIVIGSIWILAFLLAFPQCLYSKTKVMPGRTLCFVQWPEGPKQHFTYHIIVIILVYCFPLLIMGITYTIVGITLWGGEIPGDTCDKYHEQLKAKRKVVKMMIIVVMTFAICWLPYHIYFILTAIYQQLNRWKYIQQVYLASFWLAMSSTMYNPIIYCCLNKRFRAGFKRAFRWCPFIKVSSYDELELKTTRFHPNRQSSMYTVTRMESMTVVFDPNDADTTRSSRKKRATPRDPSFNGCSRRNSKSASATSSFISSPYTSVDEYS
In words: [3H]SR142801 competition binding assay. The conditions noted are these: membranes from HEK293 cells transiently expressing recombinant human NK3 receptor; [3H]SR142801 radioligand; Ki by Cheng-Prussoff. As for the experimental part:
[^3H]SR142801 Competition Binding Assay
hNK3 receptor binding experiment were performed using [^3H]SR142801 (Catalog No. TRK1035, specific activity: 74.0 Ci/mmol, Amersham, GE Healthcare UK limited, Buckinghamshire, UK) and membrane isolated from HEK293 cells transiently expressing recombinant human NK3 receptor. After thawing, the membrane homogenates were centrifuged at 48,000×g for 10 min at 4° C., the pellets were resuspended in the 50 mM Tris-HCl, 4 mM MnCl2, 1 μM phosphoramidon, 0.1% BSA binding buffer at pH 7.4 to a final assay concentration of 5 μg protein/well. For inhibition experiments, membranes were incubated with [^3H]SR142801 at a concentration equal to KD value of radioligand and 10 concentrations of the inhibitory compound (0.0003-10 μM) (in a total reaction volume of 500 μl) for 75 min at room temperature (RT). At the end of the incubation, membranes were filtered onto unit filter (96-well white microplate with bonded GF/C filter preincubated 1 h in 0.3% PEI+0.3% BSA, Packard BioScience, Meriden, Conn.) with a Filtermate 196 harvester (Packard BioScience) and washed 4 times with ice-cold 50 mM Tris-HCl, pH 7.4 buffer. Nonspecific binding was measured in the presence of 10 μM SB222200 for both radioligands. The radioactivity on the filter was counted (5 min) on a Packard Top-count microplate scintillation counter with quenching correction after addition of 45 μl of microscint 40 (Canberra Packard S. A., Zürich, Switzerland) and shaking for 1 h. Inhibition curves were fitted according to the Hill equation: y=100/(1+(x/IC50)^nH), where nH=slope factor using Excel-fit 4 software (Microsoft). IC50 values were derived from the inhibition curve and the affinity constant (Ki) values were calculated using the Cheng-Prussoff equation Ki=IC50/(1+[L]/KD) where [L] is the concentration of radioligand and KD is its dissociation constant at the receptor, derived from the saturation isotherm. All experiments were performed in duplicate and the mean±standard error (SEM) of the individual Ki values was calculated.

Usually Ki stands for a dissociation constant, usually derived from enzyme kinetics or from competition with a known ligand. On to `C[C@H](Oc1ccc(F)cc1)[C@@H]1CN(C(=O)N2CCN(S(C)(=O)=O)CC2)C[C@H]1c1ccc(Cl)c(Cl)c1` (racemic) [Example 46, {(3RS,4SR)-3-(3,4-Dichloro-phenyl)-4-[(SR)-1-(4-fluoro-phenoxy)-ethyl]-pyrrolidin-1-yl}-(4-methanesulfonyl-piperazin-1-yl)-methanone], for which the Ki is 49.7 nM. Take `C[C@H](Oc1ccc(Cl)cc1)[C@@H]1CN(C(=O)N2CCN(S(C)(=O)=O)CC2)C[C@H]1c1ccc(Cl)c(Cl)c1` (racemic) [Example 48, [(3SR,4RS)-3-[(SR)-1-(4-Chloro-phenoxy)-ethyl]-4 (3,4-dichloro-phenyl)-pyrrolidin-1-yl]-(4-methanesulfonyl-piperazin-1-yl)-methanone]: the inhibitory constant (Ki) turned out to be 68 nM.

Take `C[C@@H](Oc1ncc(F)cn1)[C@@H]1CN(C(=O)N2CCN(S(C)(=O)=O)CC2)C[C@H]1c1ccc(Cl)c(Cl)c1` (racemic) [Example 51, {(3RS,4SR)-3-(3,4-Dichloro-phenyl)-4-[(RS)-1-(5-fluoro-pyrimidin-2-yloxy)-ethyl]-pyrrolidin-1-yl}-(4-methanesulfonyl-piperazin-1-yl)-methanone]: the Ki is 23.7 nM. On to `C[C@@H](Oc1ccc(C(F)(F)F)cc1)[C@@H]1CN(C(=O)N2CCN(CCN(C)C)CC2)C[C@H]1c1ccc(Cl)c(Cl)c1` (racemic) [Example 52], for which the Ki is 42.5 nM. The same measure for `C[C@@H](Oc1ncc(Cl)cn1)[C@@H]1CN(C(=O)N2CCN(S(C)(=O)=O)CC2)C[C@H]1c1ccc(Cl)c(Cl)c1` (racemic) [Example 53, [(3SR,4RS)-3-[(RS)-1-(5-Chloro-pyrimidin-2-yloxy)-ethyl]-4-(3,4-dichloro-phenyl)-pyrrolidin-1-yl]-(4-methanesulfonyl-piperazin-1-yl)-methanone]: 6.8 nM; for `C[C@@H](Oc1ccc(Cl)cn1)[C@@H]1CN(C(=O)CCCCN2CCOCC2)C[C@H]1c1ccc(Cl)c(Cl)c1` (racemic) [Example 55, 1-[(3SR,4RS)-3-[(RS)-1-(5-Chloro-pyridin-2-yloxy)-ethyl]-4-(3,4-dichloro-phenyl)-pyrrolidin-1-yl]-5-morpholin-4-yl-pentan-1-one]: 20 nM. Take `C[C@@H](Oc1ccc(Cl)cn1)[C@@H]1CN(C(=O)N2CCN(CCN(C)C)CC2)C[C@H]1c1ccc(Cl)c(Cl)c1` (racemic) [Example 56, [(3SR,4RS)-3-[(RS)-1-(5-Chloro-pyridin-2-yloxy)-ethyl]-4-(3,4-dichloro-phenyl)-pyrrolidin-1-yl]-[4-(2-dimethylamino-ethyl)-piperazin-1-yl]-methanone]: the inhibition constant (Ki) was determined as 2.6 nM.

Turning to `C[C@H](Oc1ccc(F)cn1)[C@@H]1CN(C(=O)N2CCN(S(C)(=O)=O)CC2)C[C@H]1c1ccc(Cl)c(Cl)c1` (racemic) [Example 57, {(3RS,4SR)-3-(3,4-Dichloro-phenyl)-4-[(SR)-1-(5-fluoro-pyridin-2-yloxy)-ethyl]-pyrrolidin-1-yl}-(4-methanesulfonyl-piperazin-1-yl)-methanone], the inhibition constant Ki worked out at 64.7 nM. The result for `C[C@@H](Oc1ccc(F)cn1)[C@@H]1CN(C(=O)N2CCN(S(C)(=O)=O)CC2)C[C@H]1c1ccc(Cl)c(Cl)c1` (racemic) [Example 59, {(3RS,4SR)-3-(3,4-Dichloro-phenyl)-4-[(RS)-1-(5-fluoro-pyridin-2-yloxy)-ethyl]-pyrrolidin-1-yl}-(4-methanesulfonyl-piperazin-1-yl)-methanone] reads 12.6 nM; that for `C[C@@H](Oc1ccc(Cl)cn1)[C@@H]1CN(C(=O)N2CC3(COC3)C2)C[C@H]1c1ccc(Cl)c(Cl)c1` (racemic) [Example 61, [(3SR,4RS)-3-[(RS)-1-(5-Chloro-pyridin-2-yloxy)-ethyl]-4-(3,4-dichloro-phenyl)-pyrrolidin-1-yl]-(2-oxa-6-aza-spiro[3.3]hept-6-yl)-methanone], 39 nM; that for `C[C@@H](Oc1ccc(Cl)cn1)[C@@H]1CN(C(=O)N2CCN3C(=O)CCC3C2)C[C@H]1c1ccc(Cl)c(Cl)c1` (mixture of isomers) [Example 62, 2-[(3SR,4RS)-3-[(RS)-1-(5-Chloro-pyridin-2-yloxy)-ethyl]-4-(3,4-dichloro-phenyl)-pyrrolidine-1-carbonyl]-hexahydro-pyrrolo[1,2-a]pyrazin-6-one], 24 nM. As to `CS(=O)(=O)N1CCN(C(=O)N2C[C@@H](COc3ccc(Cl)cn3)[C@H](c3ccc(Cl)c(Cl)c3)C2)CC1` (racemic) [Example 63], the Ki is 12 nM. The result for `CC(=O)NC1(c2ccccc2)CCN(CC(=O)N2C[C@@H]([C@@H](C)Oc3ccc(Cl)cc3)[C@H](c3ccc(Cl)c(Cl)c3)C2)CC1` (racemic) [Example 64, N-(1-{2-[(3SR,4RS)-3-[(RS)-1-(4-Chloro-phenoxy)-ethyl]-4-(3,4-dichloro-phenyl)-pyrrolidin-1-yl]-2-oxo-ethyl}-4-phenyl-piperidin-4-yl)-acetamide] reads 19 nM.

On to `CC(=O)N1CCN(CC(=O)N2C[C@@H]([C@@H](C)Oc3ccc(Cl)cc3)[C@H](c3ccc(Cl)c(Cl)c3)C2)CC1` (racemic) [Example 66, 2-(4-Acetyl-piperazin-1-yl)-1-[(3SR,4RS)-3-[(RS)-1-(4-chloro-phenoxy)-ethyl]-4-(3,4-dichloro-phenyl)-pyrrolidin-1-yl]-ethanone], for which the Ki came out at 11 nM. The same measure for `C[C@@H](Oc1ccc(Cl)cc1)[C@@H]1CN(C(=O)CN2CCC(CO)CC2)C[C@H]1c1ccc(Cl)c(Cl)c1` (racemic) [Example 67, 1-[(3SR,4RS)-3-[(RS)-1-(4-Chloro-phenoxy)-ethyl]-4-(3,4-dichloro-phenyl)-pyrrolidin-1-yl]-2-(4-hydroxymethyl-piperidin-1-yl)-ethanone]: 53 nM. As to `C[C@H](Oc1ccc(C(F)(F)F)cn1)[C@H]1CN(C(=O)N2CCN(S(C)(=O)=O)CC2)C[C@@H]1c1ccc(Cl)c(Cl)c1` (racemic) [Example 69, {(3SR,4RS)-3-(3,4-Dichloro-phenyl)-4-[(SR)-1-(5-trifluoromethyl-pyridin-2-yloxy)ethyl]-pyrrolidin-1-yl}-(4-methanesulfonyl-piperazin-1-yl)-methanone], the Ki was 5.6 nM. Consider `C[C@H](Oc1ccc(C#N)cn1)[C@H]1CN(C(=O)CN2CCC(C#N)CC2)C[C@@H]1c1ccc(Cl)c(Cl)c1` (racemic) [Example 70, 6-{(SR)-1-[(3RS,4SR)-1-[2-(4-Cyano-piperidin-1-yl)-acetyl]-4-(3,4-dichloro-phenyl)-pyrrolidin-3-yl]-ethoxy}-nicotinonitrile], for which the Ki worked out at 86 nM. In the case of `C[C@H](Oc1ccc(C#N)cn1)[C@H]1CN(C(=O)N2CCC(C#N)CC2)C[C@@H]1c1ccc(Cl)c(Cl)c1` (racemic) [Example 71], the Ki is 8.7 nM. The result for `C[C@H](Oc1ccc(C(F)(F)F)cn1)[C@H]1CN(C(=O)N2CC3CC2CO3)C[C@@H]1c1ccc(Cl)c(Cl)c1` (mixture of isomers) [Example 73, {(3SR,4RS)-3-(3,4-Dichloro-phenyl)-4-[(SR)-1-(5-trifluoromethyl-pyridin-2-yloxy)-ethyl]-pyrrolidin-1-yl}-(2-oxa-5-aza-bicyclo[2.2.1]hept-5-yl)-methanone] reads 93 nM.
